Test results reported in patent US4639541A, “Substituted phenylacetic acid iodopropargyl esters, biocidal agents containing same and process for manufacturing same” (priority 1984, dated 1987).

What was measured:
[1] = system: Colletotrichum coffeanum; test: Spore germination test, Colletotrichum coffeanum; assay type: cell-based; conditions: 48 hours, 20° C., vs untreated control
Experimental: (§1) 50 μl of a solution or suspension of an active ingredient according to the invention together with 50 μl of a spore suspension produced by washing spores of an agar culture with a nutrient solution that contained per liter 10 g of sugar, 1 g of glycol, 1 g of KH2 PO4 and 0.5 g of MgSO4 were introduced into the concave-ground portion of concave-ground microscope slides.
(§2) The microscope slides were stored at 20° C. for 48 hours in a Petri dish, the base of which was covered with a moistened filter paper.
(§3) Subsequently, the ratio of germinated and non-germinated spores was compared with an untreated control specimen.
(§4) The degree of activity was calculated as a percentage in accordance with the following formula: [formula]

[2] = system: Botrytis cinerea; test: Spore germination test, Botrytis cinerea; assay type: cell-based; conditions: 48 hours, 20° C., vs untreated control
Experimental: as §1, §2, §3, §4

[3] = system: Fusarium culmorum; test: Spore germination test, Fusarium culmorum; assay type: cell-based; conditions: 48 hours, 20° C., vs untreated control
Experimental: as §1, §2, §3, §4

[4] = system: Fusarium nivale; test: Spore germination test, Fusarium nivale; assay type: cell-based; conditions: 48 hours, 20° C., vs untreated control
Experimental: as §1, §2, §3, §4

[5] = system: Alternaria tenuis; test: Spore germination test, Alternaria tenuis; assay type: cell-based; conditions: 48 hours, 20° C., vs untreated control
Experimental: as §1, §2, §3, §4

[6] = system: Penicillium glaucum; test: Spore germination test, Penicillium glaucum; assay type: cell-based; conditions: 48 hours, 20° C., vs untreated control
Experimental: as §1, §2, §3, §4

[7] = system: Verticillium dahliae; test: Spore germination test, Verticillium dahliae; assay type: cell-based; conditions: 48 hours, 20° C., vs untreated control
Experimental: as §1, §2, §3, §4

[8] = system: Botrytis cinerea; test: Fungicidal activity against Botrytis cinerea in broad beans; assay type: in vivo; conditions: 500 ppm spray, broad beans "Midget", after 6 days, 20° C., 95% humidity, vs untreated
Experimental: Broad beans of the "Midget" variety were grown to a height of approximately 10 cm. The plants were sprayed until dripping wet with spray liquors containing 500 ppm of active ingredient.
When the spray coating had dried, the plants were inoculated with a spore suspension of Botrytis cinerea. The plants were placed in a climatic cabinet at a constant 20° C. and an atmospheric humidity of 95%.
After 6 days, fungicidal activity was evaluated. The activity was ascertained in comparison with untreated specimens.
The degree of activity as a percentage was ascertained in accordance with the following formula [formula] The following were used as active ingredients: I 2-chloro-3,5-dinitrophenylacetic acid iodopropargyl ester

Row | Compound | degree of activity (fungal toxicity with respect to fungal spores) ([1]; 1 ppm) [%] | degree of activity (fungal toxicity with respect to fungal spores) ([1]; 2 ppm) [%] | degree of activity (fungal toxicity with respect to fungal spores) ([1]; 4 ppm) [%] | degree of activity (fungal toxicity with respect to fungal spores) ([2]; 1 ppm) [%] | degree of activity (fungal toxicity with respect to fungal spores) ([2]; 2 ppm) [%] | degree of activity (fungal toxicity with respect to fungal spores) ([2]; 4 ppm) [%] | degree of activity (fungal toxicity with respect to fungal spores) ([3]; 1 ppm) [%] | degree of activity (fungal toxicity with respect to fungal spores) ([3]; 2 ppm) [%] | degree of activity (fungal toxicity with respect to fungal spores) ([3]; 4 ppm) [%] | degree of activity (fungal toxicity with respect to fungal spores) ([4]; 1 ppm) [%] | degree of activity (fungal toxicity with respect to fungal spores) ([4]; 2 ppm) [%] | degree of activity (fungal toxicity with respect to fungal spores) ([4]; 4 ppm) [%] | degree of activity (fungal toxicity with respect to fungal spores) ([5]; 1 ppm) [%] | degree of activity (fungal toxicity with respect to fungal spores) ([5]; 2 ppm) [%] | degree of activity (fungal toxicity with respect to fungal spores) ([5]; 4 ppm) [%] | degree of activity (fungal toxicity with respect to fungal spores) ([6]; 1 ppm) [%] | degree of activity (fungal toxicity with respect to fungal spores) ([6]; 2 ppm) [%] | degree of activity (fungal toxicity with respect to fungal spores) ([6]; 4 ppm) [%] | degree of activity (fungal toxicity with respect to fungal spores) ([7]; 1 ppm) [%] | degree of activity (fungal toxicity with respect to fungal spores) ([7]; 2 ppm) [%] | further results
1 | O=C(Cc1cc([N+](=O)[O-])c(Cl)cc1Cl)OCC#CI [E] | 100 | 100 | 100 | 30 | 30 | 40 | 100 | 100 | 100 | 100 | 100 | 100 | 100 | 100 | 100 | 100 | 100 | 100 | 30 | 30 | degree of activity (fungal toxicity with respect to fungal spores) ([7]; 4 ppm): 40%
2 | O=C(Cc1c(Cl)c([N+](=O)[O-])cc([N+](=O)[O-])c1Cl)OCC#CI [K] | – | – | – | – | – | – | – | – | – | – | – | – | – | – | – | – | – | – | – | – | % Activity against Botrytis cinerea in broad beans [8]: 30%
3 | O=C(Cc1ccc(Cl)cc1)OCC#CI [A] | 80 | 90 | 95 | 80 | 80 | 90 | 90 | 95 | 95 | 60 | 80 | 90 | 80 | 80 | 90 | 90 | 95 | 95 | 80 | 80 | degree of activity (fungal toxicity with respect to fungal spores) ([7]; 4 ppm): 95%
4 | Cc1cc(C)c(CC(=O)OCC#CI)c(C)c1 [L] | – | – | – | – | – | – | – | – | – | – | – | – | – | – | – | – | – | – | – | – | % Activity against Botrytis cinerea in broad beans [8]: 20%
5 | O=C(Cc1cc([N+](=O)[O-])c(Cl)c([N+](=O)[O-])c1Cl)OCC#CI [G] | – | 60 | – | – | 100 | – | – | 70 | – | – | 80 | – | – | 70 | – | – | 70 | – | – | 70 | –
6 | O=C(OCC#CI)C(Cl)c1ccccc1 (centres unmarked) [D] | 80 | 90 | 95 | 80 | 80 | 90 | 90 | 95 | 95 | 60 | 80 | 90 | 80 | 90 | 90 | 90 | 95 | 95 | 80 | 80 | degree of activity (fungal toxicity with respect to fungal spores) ([7]; 4 ppm): 95%
7 | O=C(Cc1ccc([N+](=O)[O-])cc1)OCC#CI [F] | – | 90 | – | – | 40 | – | – | 40 | – | – | 80 | – | – | 100 | – | – | 80 | – | – | 90 | –
8 | O=C(Cc1cc([N+](=O)[O-])cc([N+](=O)[O-])c1Cl)OCC#CI [I] | – | – | – | – | – | – | – | – | – | – | – | – | – | – | – | – | – | – | – | – | % Activity against Botrytis cinerea in broad beans [8]: 80%
9 | O=C(OCC#CI)C(Br)c1ccc(Cl)cc1 (centres unmarked) [B] | 100 | 100 | 100 | 100 | 100 | 100 | 100 | 100 | 100 | 100 | 100 | 100 | 100 | 100 | 100 | 100 | 100 | 100 | 100 | 100 | degree of activity (fungal toxicity with respect to fungal spores) ([7]; 4 ppm): 100%
10 | O=C(Cc1c(Cl)cccc1Cl)OCC#CI [C] | 95 | 95 | 95 | 95 | 95 | 100 | 95 | 95 | 95 | 100 | 100 | 100 | 95 | 95 | 95 | 60 | 90 | 90 | 100 | 100 | degree of activity (fungal toxicity with respect to fungal spores) ([7]; 4 ppm): 100%
